# Laboratory results from ChEMBL document CHEMBL4800729 (2021).
# Key:
# [1] = target: Carbonic anhydrase 2 (Homo sapiens) (UniProt P00918); experiment: Inhibition of Carbonic Anhydrase II at compound concentration of 10.0 uM in the Eurofins-Panlabs enzyme assay (Eurofins_assay_112020); design: substrate with concentration; settings: Compound concentration 10.0 uM
# [2] = target: 3-hydroxy-3-methylglutaryl-coenzyme A reductase (Homo sapiens) (UniProt P04035); experiment: Inhibition of HMG-CoA Reductase at compound concentration of 10.0 uM in the Eurofins-Panlabs enzyme assay (Eurofins_assay_124010); design: substrate with concentration; settings: Compound concentration 10.0 uM
# [3] = target: Monoamine oxidase A (MAO-A) (Homo sapiens, UniProt P21397); experiment: Inhibition of Monoamine Oxidase MAO-A at compound concentration of 10.0 uM in the Eurofins-Panlabs enzyme assay (Eurofins_assay_140010); design: substrate with concentration 50 uM Kynuramine, incubation time 60 min, incubation temperature 37 C; settings: recombinant human MAO-A expressed in insect Hi5 cells, probe Kynuramine (50 uM), compound concentration 10 uM
# [4] = target: Phosphodiesterase 3 (Homo sapiens) (UniProt Q14432+Q13370); experiment: Inhibition of Phosphodiesterase PDE3 at compound concentration of 10.0 uM in the Eurofins-Panlabs enzyme assay (Eurofins_assay_152000); assay type: protein assay; design: substrate with concentration 1.01 uM [3H] cAMP + cAMP, incubation time 20 min, incubation temperature 25 C; settings: Compound concentration 10.0 uM
# [5] = target: Activin receptor type-1 (Homo sapiens) (UniProt Q04771); experiment: ALK2(h) Millipore kinase panel; settings: Compound concentration 1.0 uM
# [6] = target: Bone morphogenetic protein receptor type-2 (Homo sapiens) (UniProt Q13873); experiment: BMPR2(h) Millipore kinase panel; settings: Compound concentration 1.0 uM
# [7] = target: Tyrosine-protein kinase BTK (Homo sapiens) (UniProt Q06187); experiment: BTK(h) Millipore kinase panel; settings: Compound concentration 1.0 uM
# [8] = target: Cyclin-dependent kinase 2/cyclin A (Homo sapiens) (UniProt P24941+P20248+P78396); experiment: CDK2/cyclinA(h) Millipore kinase panel; assay type: protein-complex assay; settings: Compound concentration 1.0 uM
# [9] = target: Serine/threonine-protein kinase 17B (Homo sapiens) (UniProt O94768); experiment: DRAK2(h) Millipore kinase panel; settings: Compound concentration 1.0 uM
# [10] = target: Dual specificity tyrosine-phosphorylation-regulated kinase 3 (Homo sapiens) (UniProt O43781); experiment: DYRK3(h) Millipore kinase panel; settings: Compound concentration 1.0 uM
# [11] = target: Ephrin type-A receptor 7 (Homo sapiens) (UniProt Q15375); experiment: EphA7(h) Millipore kinase panel; settings: Compound concentration 1.0 uM
# [12] = target: eIF-2-alpha kinase GCN2 (Homo sapiens) (UniProt Q9P2K8); experiment: GCN2(h) Millipore kinase panel; settings: Compound concentration 1.0 uM
# [13] = target: Beta-adrenergic receptor kinase 1 (Homo sapiens) (UniProt P25098); experiment: GRK2(h) Millipore kinase panel; settings: Compound concentration 1.0 uM
# [14] = target: Homeodomain-interacting protein kinase 1 (Homo sapiens) (UniProt Q86Z02); experiment: HIPK1(h) Millipore kinase panel; settings: Compound concentration 1.0 uM
# [15] = target: LIM domain kinase 2 (Homo sapiens) (UniProt P53671); experiment: LIMK2(h) Millipore kinase panel; settings: Compound concentration 1.0 uM
# [16] = target: MAP/microtubule affinity-regulating kinase 4 (Homo sapiens) (UniProt Q96L34); experiment: MARK4(h) Millipore kinase panel; settings: Compound concentration 1.0 uM
# [17] = target: Mitogen-activated protein kinase kinase kinase 10 (Homo sapiens) (UniProt Q02779); experiment: MLK2(h) Millipore kinase panel; settings: Compound concentration 1.0 uM
# [18] = target: SRSF protein kinase 3 (Homo sapiens) (UniProt Q9UPE1); experiment: MSSK1(h) Millipore kinase panel; settings: Compound concentration 1.0 uM
# [19] = target: Serine/threonine-protein kinase 3 (Homo sapiens) (UniProt Q13188); experiment: MST2(h) Millipore kinase panel; settings: Compound concentration 1.0 uM
# [20] = target: Serine/threonine-protein kinase Nek4 (Homo sapiens) (UniProt P51957); experiment: NEK4(h) Millipore kinase panel; settings: Compound concentration 1.0 uM
# [21] = target: Phosphatidylinositol 3-kinase C2 domain-containing subunit gamma (Homo sapiens) (UniProt O75747); experiment: PI3KC2g(h) Millipore kinase panel; settings: Compound concentration 1.0 uM
# [22] = target: Serine/threonine-protein kinase pim-2 (Homo sapiens) (UniProt Q9P1W9); experiment: Pim-2(h) Millipore kinase panel; settings: Compound concentration 1.0 uM
# [23] = target: Serine/threonine-protein kinase D3 (Homo sapiens) (UniProt O94806); experiment: PKD3(h) Millipore kinase panel; settings: Compound concentration 1.0 uM
# [24] = target: Interferon-induced, double-stranded RNA-activated protein kinase (Homo sapiens) (UniProt P19525); experiment: PKR(h) Millipore kinase panel; settings: Compound concentration 1.0 uM
# [25] = target: Mitogen-activated protein kinase 11 (Homo sapiens) (UniProt Q15759); experiment: SAPK2b(h) Millipore kinase panel; settings: Compound concentration 1.0 uM
# [26] = target: Serine/threonine-protein kinase SIK1 (Homo sapiens) (UniProt P57059); experiment: SIK(h) Millipore kinase panel; settings: Compound concentration 1.0 uM
# [27] = target: Serine/threonine-protein kinase SIK2 (Homo sapiens) (UniProt Q9H0K1); experiment: SIK2(h) Millipore kinase panel; settings: Compound concentration 1.0 uM
# [28] = target: Mitogen-activated protein kinase kinase kinase 7 (Homo sapiens) (UniProt O43318); experiment: TAK1(h) Millipore kinase panel; settings: Compound concentration 1.0 uM
# [29] = target: Tyrosine-protein kinase Yes (Homo sapiens) (UniProt P07947); experiment: Yes(h) Millipore kinase panel; settings: Compound concentration 1.0 uM
# [30] = target: CDK6/cyclin D3 (Homo sapiens) (UniProt P30281+Q00534); experiment: CDK6/cyclinD3(h) Millipore kinase panel; assay type: protein-complex assay; settings: Compound concentration 1.0 uM
# [31] = target: CDK7/Cyclin H/MNAT1 (Homo sapiens) (UniProt P51946+P50613+P51948); experiment: CDK7/cyclinH/MAT1(h) Millipore kinase panel; assay type: protein-complex assay; settings: Compound concentration 1.0 uM
# [32] = target: 5-hydroxytryptamine receptor 2B (Homo sapiens, UniProt P41595); settings: Compound concentration 10.0 uM
# [33] = target: Sodium-dependent dopamine transporter (Homo sapiens) (UniProt Q01959); settings: Compound concentration 10.0 uM
# [34] = target: T1, Alpha-2B adrenergic receptor (Homo sapiens) (UniProt P18089); settings: Compound concentration 10.0 uM
# T1 sequence (whole entry): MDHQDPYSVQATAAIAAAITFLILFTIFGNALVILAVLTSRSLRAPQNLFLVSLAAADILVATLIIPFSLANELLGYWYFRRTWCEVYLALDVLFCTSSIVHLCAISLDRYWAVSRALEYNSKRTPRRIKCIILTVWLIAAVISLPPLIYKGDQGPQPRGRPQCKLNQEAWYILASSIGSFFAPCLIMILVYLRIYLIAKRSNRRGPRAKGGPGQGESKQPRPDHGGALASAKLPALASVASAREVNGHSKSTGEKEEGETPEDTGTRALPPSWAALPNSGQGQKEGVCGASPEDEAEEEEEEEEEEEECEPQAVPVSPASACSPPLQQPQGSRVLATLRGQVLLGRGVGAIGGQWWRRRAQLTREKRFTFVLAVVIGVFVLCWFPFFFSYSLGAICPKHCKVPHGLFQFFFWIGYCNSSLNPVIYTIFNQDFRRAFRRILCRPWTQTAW
# [35] = target: Muscarinic acetylcholine receptor M5 (Homo sapiens) (UniProt P08912); settings: Compound concentration 10.0 uM
# [36] = target: D(3) dopamine receptor (Homo sapiens) (UniProt P35462); settings: Compound concentration 10.0 uM
# [37] = target: Type-2 angiotensin II receptor (Homo sapiens) (UniProt P50052); settings: Compound concentration 10.0 uM
# [38] = target: Muscarinic acetylcholine receptor M4 (Homo sapiens) (UniProt P08173); settings: Compound concentration 10.0 uM
# Homo sapiens = species: Homo sapiens; settings: Compound concentration 10.0 uM
# D(3) dopamine receptor (Homo sapiens), sequence (P35462 whole entry): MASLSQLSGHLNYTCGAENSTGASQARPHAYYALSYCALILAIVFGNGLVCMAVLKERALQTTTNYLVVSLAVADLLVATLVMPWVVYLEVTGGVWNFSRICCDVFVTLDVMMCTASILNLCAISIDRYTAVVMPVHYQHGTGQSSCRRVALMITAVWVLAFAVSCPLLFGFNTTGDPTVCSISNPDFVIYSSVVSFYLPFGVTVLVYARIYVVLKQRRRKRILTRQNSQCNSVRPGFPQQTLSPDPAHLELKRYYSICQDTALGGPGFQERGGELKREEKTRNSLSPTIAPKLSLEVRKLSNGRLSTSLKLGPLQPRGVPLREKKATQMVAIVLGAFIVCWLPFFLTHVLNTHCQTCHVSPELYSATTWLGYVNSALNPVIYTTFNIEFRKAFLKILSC
# 5-hydroxytryptamine receptor 2B, sequence (P41595 whole entry): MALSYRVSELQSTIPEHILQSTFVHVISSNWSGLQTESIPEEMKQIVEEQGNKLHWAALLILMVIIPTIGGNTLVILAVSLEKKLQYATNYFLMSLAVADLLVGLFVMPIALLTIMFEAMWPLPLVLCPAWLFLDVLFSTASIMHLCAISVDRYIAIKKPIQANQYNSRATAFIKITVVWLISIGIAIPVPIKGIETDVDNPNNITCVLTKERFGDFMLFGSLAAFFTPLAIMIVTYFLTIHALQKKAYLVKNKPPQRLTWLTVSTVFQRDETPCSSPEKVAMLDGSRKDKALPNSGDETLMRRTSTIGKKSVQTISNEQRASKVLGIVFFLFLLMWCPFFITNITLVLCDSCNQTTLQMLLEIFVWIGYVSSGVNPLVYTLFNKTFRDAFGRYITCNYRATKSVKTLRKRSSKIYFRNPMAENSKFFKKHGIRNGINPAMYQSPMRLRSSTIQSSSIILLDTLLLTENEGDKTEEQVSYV
# Monoamine oxidase A (MAO-A), sequence (P21397 whole entry): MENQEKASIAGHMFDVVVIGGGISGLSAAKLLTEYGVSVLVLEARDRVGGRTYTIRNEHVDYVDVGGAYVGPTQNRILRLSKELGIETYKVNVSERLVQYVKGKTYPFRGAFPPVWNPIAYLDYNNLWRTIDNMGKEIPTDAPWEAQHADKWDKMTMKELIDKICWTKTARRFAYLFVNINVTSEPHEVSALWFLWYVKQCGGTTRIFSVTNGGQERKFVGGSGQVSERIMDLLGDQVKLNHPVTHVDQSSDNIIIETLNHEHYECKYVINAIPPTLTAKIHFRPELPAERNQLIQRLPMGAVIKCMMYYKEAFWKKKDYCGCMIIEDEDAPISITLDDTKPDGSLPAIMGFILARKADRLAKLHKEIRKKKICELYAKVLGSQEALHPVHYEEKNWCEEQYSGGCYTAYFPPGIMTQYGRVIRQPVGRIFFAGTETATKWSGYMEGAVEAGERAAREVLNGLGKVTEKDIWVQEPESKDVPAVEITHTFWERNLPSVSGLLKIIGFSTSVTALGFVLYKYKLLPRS
# eIF-2-alpha kinase GCN2 (Homo sapiens), sequence (Q9P2K8 whole entry): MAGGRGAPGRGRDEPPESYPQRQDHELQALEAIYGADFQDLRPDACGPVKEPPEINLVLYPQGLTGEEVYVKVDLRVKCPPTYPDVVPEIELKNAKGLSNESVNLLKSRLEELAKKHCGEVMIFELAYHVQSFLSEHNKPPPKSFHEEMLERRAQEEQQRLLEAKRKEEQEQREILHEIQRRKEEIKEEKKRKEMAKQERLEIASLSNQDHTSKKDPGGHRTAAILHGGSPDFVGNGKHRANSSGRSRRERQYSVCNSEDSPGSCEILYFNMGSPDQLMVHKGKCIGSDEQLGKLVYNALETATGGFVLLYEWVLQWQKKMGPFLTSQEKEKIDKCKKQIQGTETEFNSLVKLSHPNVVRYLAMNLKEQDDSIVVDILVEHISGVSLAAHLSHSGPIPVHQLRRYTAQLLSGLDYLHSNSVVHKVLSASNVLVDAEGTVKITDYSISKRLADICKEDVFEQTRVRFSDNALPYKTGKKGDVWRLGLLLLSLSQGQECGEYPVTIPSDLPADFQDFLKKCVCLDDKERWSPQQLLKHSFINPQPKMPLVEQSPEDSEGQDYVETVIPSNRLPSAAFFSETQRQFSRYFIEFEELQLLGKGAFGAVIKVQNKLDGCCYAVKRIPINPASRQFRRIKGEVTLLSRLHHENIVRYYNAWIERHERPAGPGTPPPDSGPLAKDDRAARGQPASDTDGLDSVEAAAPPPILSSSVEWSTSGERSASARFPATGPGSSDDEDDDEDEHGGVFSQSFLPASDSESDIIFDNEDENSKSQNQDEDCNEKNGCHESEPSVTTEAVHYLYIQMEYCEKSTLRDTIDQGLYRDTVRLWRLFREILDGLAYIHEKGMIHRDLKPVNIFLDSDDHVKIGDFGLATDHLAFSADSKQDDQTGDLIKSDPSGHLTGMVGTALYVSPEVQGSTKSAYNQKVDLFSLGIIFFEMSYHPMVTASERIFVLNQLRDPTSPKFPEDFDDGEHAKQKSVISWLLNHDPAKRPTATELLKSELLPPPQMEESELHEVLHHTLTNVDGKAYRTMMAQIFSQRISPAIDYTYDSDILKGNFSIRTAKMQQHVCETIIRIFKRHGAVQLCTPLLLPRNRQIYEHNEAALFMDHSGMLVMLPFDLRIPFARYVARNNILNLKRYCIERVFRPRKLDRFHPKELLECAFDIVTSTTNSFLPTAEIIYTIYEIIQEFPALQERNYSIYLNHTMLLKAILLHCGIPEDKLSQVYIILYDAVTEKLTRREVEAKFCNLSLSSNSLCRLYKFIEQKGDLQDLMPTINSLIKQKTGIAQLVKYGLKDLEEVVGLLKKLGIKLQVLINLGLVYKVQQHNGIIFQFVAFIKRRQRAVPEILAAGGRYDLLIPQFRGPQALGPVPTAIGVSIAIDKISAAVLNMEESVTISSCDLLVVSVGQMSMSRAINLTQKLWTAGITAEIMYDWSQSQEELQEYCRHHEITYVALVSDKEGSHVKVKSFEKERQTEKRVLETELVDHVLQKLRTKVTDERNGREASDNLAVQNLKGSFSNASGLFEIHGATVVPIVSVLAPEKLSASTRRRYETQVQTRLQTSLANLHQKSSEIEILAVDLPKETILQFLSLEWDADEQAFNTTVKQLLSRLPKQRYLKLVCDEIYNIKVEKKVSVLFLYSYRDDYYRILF
# Tyrosine-protein kinase Yes (Homo sapiens), sequence (P07947 2-543 limits assumed): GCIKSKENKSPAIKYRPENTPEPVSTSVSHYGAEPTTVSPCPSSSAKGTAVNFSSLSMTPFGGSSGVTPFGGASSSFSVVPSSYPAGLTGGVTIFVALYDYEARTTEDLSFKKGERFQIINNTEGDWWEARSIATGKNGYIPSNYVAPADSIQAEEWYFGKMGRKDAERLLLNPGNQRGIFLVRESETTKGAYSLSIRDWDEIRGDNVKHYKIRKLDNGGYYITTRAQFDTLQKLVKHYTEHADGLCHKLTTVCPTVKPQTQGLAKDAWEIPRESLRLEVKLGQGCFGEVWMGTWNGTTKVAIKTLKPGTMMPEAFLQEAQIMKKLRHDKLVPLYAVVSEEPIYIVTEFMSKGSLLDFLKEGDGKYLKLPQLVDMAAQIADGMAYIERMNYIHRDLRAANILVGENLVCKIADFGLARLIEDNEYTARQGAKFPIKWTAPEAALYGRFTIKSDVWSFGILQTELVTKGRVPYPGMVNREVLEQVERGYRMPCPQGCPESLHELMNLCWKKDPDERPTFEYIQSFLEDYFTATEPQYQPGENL
# Serine/threonine-protein kinase D3 (Homo sapiens), sequence (O94806 whole entry): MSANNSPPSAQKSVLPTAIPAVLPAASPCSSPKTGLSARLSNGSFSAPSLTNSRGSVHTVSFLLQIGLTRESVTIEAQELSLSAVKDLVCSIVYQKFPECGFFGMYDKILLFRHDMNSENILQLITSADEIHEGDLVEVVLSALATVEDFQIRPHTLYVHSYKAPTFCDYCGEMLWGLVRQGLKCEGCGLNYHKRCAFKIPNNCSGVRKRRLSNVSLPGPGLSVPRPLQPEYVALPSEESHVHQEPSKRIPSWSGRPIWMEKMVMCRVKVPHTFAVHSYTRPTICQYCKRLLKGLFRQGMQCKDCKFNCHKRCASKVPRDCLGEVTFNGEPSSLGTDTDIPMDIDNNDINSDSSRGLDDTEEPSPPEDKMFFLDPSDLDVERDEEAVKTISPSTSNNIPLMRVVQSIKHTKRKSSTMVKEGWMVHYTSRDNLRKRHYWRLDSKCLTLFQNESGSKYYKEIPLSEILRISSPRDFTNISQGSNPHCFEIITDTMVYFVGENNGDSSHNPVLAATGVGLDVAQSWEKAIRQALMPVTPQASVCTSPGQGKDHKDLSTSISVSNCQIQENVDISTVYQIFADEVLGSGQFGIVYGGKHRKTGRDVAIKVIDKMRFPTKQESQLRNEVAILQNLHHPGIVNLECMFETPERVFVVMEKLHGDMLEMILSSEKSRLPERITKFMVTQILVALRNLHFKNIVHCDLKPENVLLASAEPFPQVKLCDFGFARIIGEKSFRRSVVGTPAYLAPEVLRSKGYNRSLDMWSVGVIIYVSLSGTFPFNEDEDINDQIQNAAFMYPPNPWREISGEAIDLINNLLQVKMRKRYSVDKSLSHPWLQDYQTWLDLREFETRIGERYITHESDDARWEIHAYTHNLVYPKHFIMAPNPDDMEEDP
# SRSF protein kinase 3 (Homo sapiens), sequence (Q9UPE1 whole entry): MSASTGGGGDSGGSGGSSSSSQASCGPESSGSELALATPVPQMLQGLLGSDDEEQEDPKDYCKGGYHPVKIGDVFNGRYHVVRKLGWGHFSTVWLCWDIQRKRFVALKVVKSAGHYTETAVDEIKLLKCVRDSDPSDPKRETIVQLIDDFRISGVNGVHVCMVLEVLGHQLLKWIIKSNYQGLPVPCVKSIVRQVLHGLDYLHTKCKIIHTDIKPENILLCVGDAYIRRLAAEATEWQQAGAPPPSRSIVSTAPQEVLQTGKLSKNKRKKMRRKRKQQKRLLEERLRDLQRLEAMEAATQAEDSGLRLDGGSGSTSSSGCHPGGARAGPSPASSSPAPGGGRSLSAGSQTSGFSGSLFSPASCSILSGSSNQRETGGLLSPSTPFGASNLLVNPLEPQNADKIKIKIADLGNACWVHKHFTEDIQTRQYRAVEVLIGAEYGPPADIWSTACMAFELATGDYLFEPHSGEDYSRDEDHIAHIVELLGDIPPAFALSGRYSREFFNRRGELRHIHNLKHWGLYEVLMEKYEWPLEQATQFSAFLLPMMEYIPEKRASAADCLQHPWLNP
smiles,measurement,setting,value
CC[C@@H](Nc1c(C#N)c(-c2ccc(-c3cccc(C)c3F)cc2)nc2cnccc12)C(=O)O [BAY-091],inhibition,[1],-6%
same,inhibition,[2],-7%
same,"inhibition at 60 min, 10 µM",[3],7% (not active)
same,inhibition,[4],74%
same,inhibition,[5],5.14%
same,inhibition,[6],4.45%
same,inhibition,[7],12.8%
same,inhibition,[8],-1.5%
same,inhibition,[9],7.08%
same,inhibition,[10],7.66%
same,inhibition,[11],2.1%
same,inhibition,[12],-3.21%
same,inhibition,[13],1.9%
same,inhibition,[14],3.6%
same,inhibition,[15],3.03%
same,inhibition,[16],5.8%
same,inhibition,[17],18%
same,inhibition,[18],4.51%
same,inhibition,[19],0.08%
same,inhibition,[20],32.1%
same,inhibition,[21],25.4%
same,inhibition,[22],6.42%
same,inhibition,[23],12.6%
same,inhibition,[24],13.9%
same,inhibition,[25],-2.08%
same,inhibition,[26],13.4%
same,inhibition,[27],3.68%
same,inhibition,[28],7.89%
same,inhibition,[29],-3.76%
same,inhibition,[30],8.28%
same,inhibition,[31],0.3%
same,inhibition,[32],61%
same,inhibition,[33],29.5%
same,inhibition,[34],-1.14%
same,inhibition,[35],-4.26%
same,inhibition,[36],27%
same,inhibition,[37],11%
same,inhibition,[38],6%
same,inhibition,Homo sapiens,-8%
